Patent publication US20210062263A1, “A CLINICAL […]” (priority 2016, published 2021)

What was measured:
[1] = Reproductive organ weights (seminal vesicle, epididymis); assay type: in vivo, mice; conditions: castrated males, testosterone replacement
Text: (§1) Six week-old male mice were castrated under anesthesia three weeks prior to the studies on wound healing. The testes were gently pushed through the inguinal canal into the abdominal cavity and exposed through a small (0.5 cm) ventral midline abdominal incision. Each testis was gently dissected from its epididymis and removed after ligation of the testicular vasculature. All incisions were closed using two interrupted 5/0 silk sutures (Johnson & Johnson Medical, NSW, Australia).
Implants were prepared by cutting medical grade Silastic (polydimethylsiloxane) tubing (1.5 mm inner diameter, 2.3 mm outer diameter, Aunet Pty Ltd, WA, Australia) to the desired length (1 cm long) and sealing one end with Multi-Purpose Sealant (Dow Corning RTV Sealant). After 24 hours each tube was packed with either crystalline testosterone (Sigma #T-1500) or left empty (vehicle implant). The open end was then sealed and implants were allowed to dry for at least 24 hours prior to surgical implantation. The implant size was considered to be the length of tubing containing testosterone. Prior to subcutaneous insertion, implants were sterilized in absolute ethanol for 10 minutes which also removed any androgen adhering to its external surface. […]

CD45+ cells = assay: Immunohistochemical analysis of leukocyte infiltration (CD45+ cells); assay type: in vivo, mice
Text: CD45, also known as leukocyte common antigen (LCA), was used to detect infiltrating leukocytes as a marker of inflammation (Hermiston et al. (2003) Annul Rev Immunol 21:107-137). Five micron thick sections were cut and placed on Menzel-Glaser Polysine (Registered Trade Mark) slides (Thermo Scientific), air-dried and stored at room temperature. Slides were stained using an automated system (DAKO Autostainer Plus), at room temperature; sections were rehydrated and antigen retrieved with the Dako buffers citrate pH6.1. Slides were peroxidase-blocked in 3% v/v hydrogen peroxide (H2O2) in methanol for 10 mins. They were then blocked with CAS-Block (Invitrogen, CA, USA) for 10 minutes, and then incubated with primary antibody (CD45 biotinylated rat anti-mouse antibody, 1:200) for 20 min. Vectastain ABC kit (Vector Labs, Burlingame, Calif.) was subsequently applied for 30 minutes and further colorimetric detection was completed with diaminobenzidine (DAB) for 5 minutes. Sections were counterstained with haematoxylin and slides coverslipped under DePeX.
Leukocyte infiltration was assessed by calculating the average number of CD45+ cells in four random high-power fields (HPF) per tissue section from each group. Data presented reflect the mean total cell count per field from the wound area at days 3 and 5 post-wounding.

follistatin = assay: Serum follistatin levels (RIA) in wounded male mice; assay type: in vivo
Experimental: (§2) Implants were prepared by cutting medical grade Silastic (polydimethylsiloxane) tubing (1.5 mm inner diameter, 2.3 mm outer diameter, Aunet Pty Ltd, WA, Australia) to the desired length (1 cm long) and sealing one end with Multi-Purpose Sealant (Dow Corning RTV Sealant). After 24 hours each tube was packed with either crystalline testosterone (Sigma #T-1500) or left empty (vehicle implant). The open end was then sealed and implants were allowed to dry for at least 24 hours prior to surgical implantation. The implant size was considered to be the length of tubing containing testosterone. Prior to subcutaneous insertion, implants were sterilized in absolute ethanol for 10 minutes which also removed any androgen adhering to its external surface. Each testosterone or vehicle implant was inserted subcutaneously via a 5-mm nape incision in intact and castrated male mice three weeks before the wound healing experiments and the incision site was closed with 5/0 sutures.
(§3) Under anesthesia, the dorsal flanks of each 9 weeks old mouse (n=6/group) were carefully shaved and cleansed with 70% v/v ethanol. To create wounds, full-thickness, parasagittal linear incisions (1 cm long) were made through the skin and underlying the panniculus carnosus muscle on each flank and each wound was closed using two 5/0 silk sutures placed 3 mm from each end of the wound. Post operatively, all animals received analgesia to minimize pain, were allowed to recover on a heated pad and then housed in groups of four animals per cage. Incisions were examined and assessed on days 3, 5, 7 and post-wounding.
(§4) Blood samples were collected between 10:00 and 10:30 am by cardiac puncture at different time points (0d, 3d, 5d, 7d or 14d) according to the experimental protocol. The samples were allowed to coagulate for 30 minutes then centrifuged at 10,000 g for 10 minutes to collect serum which was stored at −20° C. until assayed.
Serum and skin follistatin levels were measured by RIA using human recombinant follistatin 288 as standard and as tracer following labeling with I^125 (O'Conner et al. (1999) Hum Reprod 14(3):827-832). The assay sensitivity for serum follistatin was 1.52 ng/ml, and the intra-assay variation was 5.4-5.7%.

TNF-α = assay: Cutaneous TNF-α levels (ELISA) after wounding; assay type: in vivo, mice
Experimental: (§5) Frozen samples of wounded and unwounded skin were homogenized (Janke & Kunkel Ultraturrax T25 homogenizer, IKA Labortechnik, Staufen, Germany) in 1% v/v protease inhibitor (Calbiochem, San Diego, Calif.) and the homogenates were centrifuged at 4° C. to remove debris prior to assay.
(§6) Cutaneous levels of IL-6 and TNF-α were measured in skin samples using ELISAs according to the manufacturer's instructions (R&D Systems Inc, MN, USA). The sensitivity of the IL-6 ELISA was 5.97 pg/ml; the intra-assay variation was of 3.4% and the inter-assay variation was 4.1%. Mouse recombinant was used as a standard for the TNF-α assay; the sensitivity of the ELISA was 9.04 pg/ml; the intra-assay variation was of 12.8% and the inter-assay variation was 12.7%. The concentrations are expressed per mg of tissue (wet weight).

IL-6 = assay: Cutaneous IL-6 levels (ELISA) after wounding; assay type: in vivo, mice
Experimental: as §5, §6

[2] = Serum testosterone levels (RIA) in wounded male mice with testosterone implants; assay type: in vivo; conditions: for Serum Testosterone: Castrated + T males
Experimental: Six to nine week-old male Balb/cJASMU mice obtained from the Monash University Animal Services, Monash University, Clayton, Victoria, Australia, were housed prior to and during experiments under the following conditions: temperature range 21° C. to 24° C.; light cycle 12 hours light: 12 hours dark. All mice had access to food and water ad libitum.
as §1, §2, §3, §4
Serum testosterone levels were measured using a direct radioimmunoassay (RIA) testosterone kit (IM1119—Immunotech, Marseilles, France) according to the manufacturer's instructions, using I^125-labeled testosterone as a radioactive tracer. The antibody used in the immunoassay is highly specific for testosterone with extremely low cross-reactivity (<0.75%) for related molecules such as 5a-dihydrotestosterone or […]. The assay sensitivity for serum testosterone was 15.63 pg/ml and the intra-assay variation was 7.9%. All samples from one experiment were measured in the same assay.

C[C@]12CC[C@H]3[C@@H](CCC4=CC(=O)CC[C@@]43C)[C@@H]1CC[C@@H]2O [testosterone]
size and weight of the epididymis [1]: 0.05±0.02 | size and weight of the seminal vesicle [1]: 0.42±0.02 | number of CD45+ cells (CD45+ cells; castrated group with testosterone replaced vs castrated group, days 3 and 5 post-wounding): significantly increased | leukocyte migration and infiltration to the wound site (summary) (CD45+ cells; male mice): increased migration and infiltration of leukocytes | Serum Follistatin (follistatin; Castrated + T males, 0 d): 4.3 ± 0.5 ng/mL | Serum Follistatin (follistatin; Castrated + T males, 3 d): 4.1 ± 0.3 ng/mL | Serum Follistatin (follistatin; Castrated + T males, 5 d): 3.9 ± 0.2 ng/mL | Serum Follistatin (follistatin; Castrated + T males, 7 d): 4.5 ± 0.3 ng/mL | Serum Follistatin (follistatin; Castrated + T males, 14 d): 4.5 ± 0.5 ng/mL | Serum Follistatin (follistatin; Intact + T males, 0 d): 3.6 ± 0.03 ng/mL | Serum Follistatin (follistatin; Intact + T males, 3 d): 3.8 ± 0.3 ng/mL | Serum Follistatin (follistatin; Intact + T males, 5 d): 3.8 ± 0.1 ng/mL | Serum Follistatin (follistatin; Intact + T males, 7 d): 3.8 ± 0.4 ng/mL | Serum Follistatin (follistatin; Intact + T males, 14 d): 3.6 ± 0.2 ng/mL | TNF-α skin levels (TNF-α; castrated males, testosterone replaced vs castrated males, days 5 and 7): significantly higher | TNF-α skin levels (TNF-α; castrated males, testosterone replaced, day 7 post-wounding): significantly increased | TNF-α skin levels (TNF-α; intact males given testosterone vs intact group, day 3 post-wounding): significantly increased | cutaneous IL-6 relative to castrated group (IL-6; castrated males, testosterone replacement, day 3 post-wounding): twice | cutaneous IL-6 relative to intact male group (IL-6; intact males treated with testosterone, day 3 post-wounding): almost twice | basal IL-6 levels in skin (IL-6; intact males treated with testosterone, unwounded skin): increased basal IL-6 levels | Serum Testosterone ([2]; 0 d): 5.7 ± 0.8 ng/mL | Serum Testosterone ([2]; 3 d): 5.4 ± 0.5 ng/mL | Serum Testosterone ([2]; 5 d): 5.9 ± 0.4 ng/mL | Serum Testosterone ([2]; 7 d): 5.2 ± 0.5 ng/mL | Serum Testosterone ([2]; 14 d): 4.5 ± 0.1 ng/mL | serum testosterone levels (in words) ([2]; castrated males, testosterone replacement): back to control levels | concentration at 0 d ([2]; male, Balb/cJASMU, mouse, serum, subcutaneous, 1 cm Silastic implant packed with crystalline testosterone, Intact + T males, 0 d): 5.3 ± 0.4 ng/mL | concentration at 3 d ([2]; male, Balb/cJASMU, mouse, serum, subcutaneous, 1 cm Silastic implant packed with crystalline testosterone, Intact + T males, 3 d): 5.9 ± 0.4 ng/mL | concentration at 5 d ([2]; male, Balb/cJASMU, mouse, serum, subcutaneous, 1 cm Silastic implant packed with crystalline testosterone, Intact + T males, 5 d): 7.8 ± 0.9 ng/mL | concentration at 7 d ([2]; male, Balb/cJASMU, mouse, serum, subcutaneous, 1 cm Silastic implant packed with crystalline testosterone, Intact + T males, 7 d): 6.7 ± 0.4 ng/mL | concentration at 14 d ([2]; male, Balb/cJASMU, mouse, serum, subcutaneous, 1 cm Silastic implant packed with crystalline testosterone, Intact + T males, 14 d): 6.3 ± 0.3 ng/mL
